In PubChem BioAssay AID260 (DTP/NCI, 2004) one finds T/C data, which are given here for 16 compounds.

Values joined by “and” are separate entries in the source; they are usually repeats but may differ in a detail not shown here. Identical values can stand only once. Toxic doses and inconclusive results are not listed.

In this experiment the test system is CD2F1 mice, intracerebral L1210 leukemia, survival T/C. The experiment is described as follows: NCI In Vivo Anticancer Drug Screen. Data for tumor model L1210 Leukemia (intracerebral) in CD2F1 (CDF1) mice. Particulars: higher = longer survival. The method, then:
The antitumor activity of compounds was measured in mice bearing transplantable tumors. Survival or tumor size were measured and the results are expressed as the measurement made in the treated group (T) divided by the measurement made in the vehicle treated control group (C). The tumor model used in this assay is L1210 Leukemia (intracerebral) in CD2F1 (CDF1) mice

[1] abbreviates: endpoint: median survival time, dose: 1.0 mg/kg/injection, schedule: Q01DX009 (ip), vehicle: saline with Tween-80.
[2] abbreviates: endpoint: median survival time, dose: 2.0 mg/kg/injection, schedule: Q01DX009 (ip), vehicle: saline with Tween-80.
Setting [3] is: endpoint: median survival time, dose: 4.0 mg/kg/injection, schedule: Q01DX009 (ip), vehicle: saline with Tween-80.
The mark [4] stands for this setting: endpoint: median survival time, dose: 32.0 mg/kg/injection, schedule: Q01DX009 (ip), vehicle: saline with Tween-80.
The mark [5] stands for this setting: endpoint: mean survival time, dose: 4.0 mg/kg/injection, schedule: Q01DX009 (ip), vehicle: saline.

For the compound `O=C1c2c(O)ccc(O)c2C(=O)c2c(NCCNCCO)ccc(NCCNCCO)c21`, the T/C runs as follows: (endpoint: median survival time, dose: 0.5 mg/kg/injection, schedule: Q01DX009 (ip), vehicle: saline with Tween-80) 122 % of control and 110 % of control; under setting [1], 120 % of control; under setting [2], 121 % of control; under setting [3], 105 % of control and 106 % of control.
For the compound `CC1C[C@@H](O)C(NC(=O)N(CCCl)N=O)[C@@H](O)C1` (stereo partly specified), the T/C is 123 % of control (endpoint: mean survival time, dose: 6.0 mg/kg/injection, schedule: Q01DX001 (ip), vehicle: saline); 154 % of control (endpoint: mean survival time, dose: 13.0 mg/kg/injection, schedule: Q01DX001 (ip), vehicle: saline); 332 % of control (endpoint: mean survival time, dose: 20.0 mg/kg/injection, schedule: Q01DX001 (ip), vehicle: saline); 186 % of control (endpoint: mean survival time, dose: 30.0 mg/kg/injection, schedule: Q01DX001 (ip), vehicle: saline); 157 % of control (endpoint: mean survival time, dose: 45.0 mg/kg/injection, schedule: Q01DX001 (ip), vehicle: saline).
As to `CCC1=C(c2ccc(OC)cc2)CCC(C(=O)O)C1C` (stereo unspecified), the T/C by setting is: (endpoint: median survival time, dose: 4.0 mg/kg/injection, schedule: Q01DX005 (ip), vehicle: saline) 103 % of control; (endpoint: median survival time, dose: 4.0 mg/kg/injection, schedule: Q01DX005 (ip), vehicle: suspension in saline) 102 % of control; (endpoint: median survival time, dose: 8.0 mg/kg/injection, schedule: Q01DX005 (ip), vehicle: saline) 114 % of control; (endpoint: median survival time, dose: 8.0 mg/kg/injection, schedule: Q01DX005 (ip), vehicle: suspension in saline) 102 % of control; (endpoint: median survival time, dose: 16.0 mg/kg/injection, schedule: Q01DX005 (ip), vehicle: saline) 112 % of control; (endpoint: median survival time, dose: 16.0 mg/kg/injection, schedule: Q01DX005 (ip), vehicle: suspension in saline) 96 % of control. For the same compound, the T/C runs as follows: (endpoint: median survival time, dose: 32.0 mg/kg/injection, schedule: Q01DX005 (ip), vehicle: saline) 102 % of control; (endpoint: median survival time, dose: 32.0 mg/kg/injection, schedule: Q01DX005 (ip), vehicle: suspension in saline) 104 % of control.
In the case of `NC(C/[N+]([O-])=N/O)C(=O)O` (stereo unspecified), the T/C under setting [1] is 98 % of control; the T/C under setting [2] is 105 % of control; the T/C under setting [3] was 101 % of control; the T/C (endpoint: median survival time, dose: 8.0 mg/kg/injection, schedule: Q01DX009 (ip), vehicle: saline with Tween-80) was 101 % of control; the T/C (endpoint: median survival time, dose: 16.0 mg/kg/injection, schedule: Q01DX009 (ip), vehicle: saline with Tween-80) is 102 % of control; the T/C under setting [4] is 104 % of control. The T/C by setting is: (endpoint: median survival time, dose: 56.25 mg/kg/injection, schedule: Q01DX009 (ip), vehicle: saline) 115 % of control; (endpoint: median survival time, dose: 100.0 mg/kg/injection, schedule: Q01DX009 (ip), vehicle: Klucel (hydroxypropylcellulose) (HPC)) 110 % of control and 112 % of control; (endpoint: median survival time, dose: 112.5 mg/kg/injection, schedule: Q01DX009 (ip), vehicle: saline) 89 % of control; (endpoint: median survival time, dose: 200.0 mg/kg/injection, schedule: Q01DX009 (ip), vehicle: Klucel (hydroxypropylcellulose) (HPC)) 86 % of control and 87 % of control; (endpoint: median survival time, dose: 225.0 mg/kg/injection, schedule: Q01DX009 (ip), vehicle: saline) 89 % of control.
As to `O=P1(NCCCl)OCCC(OO)N1CCCl` (stereo unspecified), the T/C reads like this: (endpoint: median survival time, dose: 40.0 mg/kg/injection, schedule: Q01DX001 (ip), vehicle: Klucel (hydroxypropylcellulose) (HPC)) 105 % of control; (endpoint: median survival time, dose: 80.0 mg/kg/injection, schedule: Q01DX001 (ip), vehicle: Klucel (hydroxypropylcellulose) (HPC)) 111 % of control; (endpoint: median survival time, dose: 160.0 mg/kg/injection, schedule: Q01DX001 (ip), vehicle: Klucel (hydroxypropylcellulose) (HPC)) 113 % of control; (endpoint: median survival time, dose: 320.0 mg/kg/injection, schedule: Q01DX001 (ip), vehicle: Klucel (hydroxypropylcellulose) (HPC)) 91 % of control.
For `CN(C)N=Nc1ccccc1`, the T/C is 101 % of control and 104 % of control and 112 % of control (endpoint: mean survival time, dose: 6.25 mg/kg/injection, schedule: Q01DX009 (ip), vehicle: Klucel (hydroxypropylcellulose) (HPC)); 109 % of control and 112 % of control and 113 % of control (endpoint: mean survival time, dose: 12.5 mg/kg/injection, schedule: Q01DX009 (ip), vehicle: Klucel (hydroxypropylcellulose) (HPC)); 118 % of control (endpoint: mean survival time, dose: 25.0 mg/kg/injection, schedule: Q01DX009 (ip), vehicle: Klucel (hydroxypropylcellulose) (HPC)); 120 % of control and 107 % of control and 115 % of control (endpoint: mean survival time, dose: 50.0 mg/kg/injection, schedule: Q01DX009 (ip), vehicle: Klucel (hydroxypropylcellulose) (HPC)).
Regarding `CN(C)N=Nc1ccc([N+](=O)[O-])cc1C(N)=O`, the T/C (endpoint: median survival time, dose: 32.0 mg/kg/injection, schedule: Q01DX005 (ip), vehicle: saline with Tween-80) was 100 % of control; the T/C (endpoint: median survival time, dose: 64.0 mg/kg/injection, schedule: Q01DX005 (ip), vehicle: saline with Tween-80) was 98 % of control; the T/C (endpoint: median survival time, dose: 128.0 mg/kg/injection, schedule: Q01DX005 (ip), vehicle: saline with Tween-80) was 121 % of control.
For the compound `O=C1c2ccccc2C(=O)c2c(NCCNCCO)ccc(NCCNCCO)c21`, the T/C under setting [3] is 118 % of control; the T/C (endpoint: median survival time, dose: 4.0 mg/kg/injection, schedule: Q01DX009 (ip), vehicle: saline) was 102 % of control and 111 % of control; the T/C (endpoint: median survival time, dose: 8.0 mg/kg/injection, schedule: Q01DX009 (ip), vehicle: saline) is 119 % of control and 102 % of control; the T/C (endpoint: median survival time, dose: 16.0 mg/kg/injection, schedule: Q01DX009 (ip), vehicle: saline) was 121 % of control and 124 % of control; the T/C under setting [4] was 97 % of control; the T/C (endpoint: median survival time, dose: 32.0 mg/kg/injection, schedule: Q01DX009 (ip), vehicle: saline) was 103 % of control.
In the case of `CC[n+]1ccc(Nc2ccc(NC(=O)c3ccc(Nc4cc[n+](CC)c5ccc(N)cc45)cc3)cc2)cc1`, the T/C runs as follows: (endpoint: mean survival time, dose: 2.0 mg/kg/injection, schedule: Q01DX009 (ip), vehicle: saline) 110 % of control; under setting [5], 111 % of control.
For `CN(C)CCCN1c2ccccc2Sc2ccc(Cl)cc21`, under “endpoint: median survival time, dose: 50.0 mg/kg/injection, schedule: Q01DX001 (ip), vehicle: water”, the T/C was 113 % of control.
Consider `CN(CCO)C1=C(N2CC2)C(=O)C(N(C)CCO)=C(N2CC2)C1=O`, for which the T/C is 106 % of control and 109 % of control (endpoint: mean survival time, dose: 0.5 mg/kg/injection, schedule: Q01DX009 (ip), vehicle: saline); 111 % of control (endpoint: mean survival time, dose: 1.0 mg/kg/injection, schedule: Q01DX009 (ip), vehicle: saline); 101 % of control under setting [5].
As to `CS(=O)(=O)CS(=O)(=O)OCCCl`, the T/C was 104 % of control (endpoint: median survival time, dose: 6.25 mg/kg/injection, schedule: Q01DX009 (ip), vehicle: saline); 112 % of control (endpoint: median survival time, dose: 12.5 mg/kg/injection, schedule: Q01DX009 (ip), vehicle: saline); 209 % of control (endpoint: median survival time, dose: 50.0 mg/kg/injection, schedule: Q01DX009 (ip), vehicle: saline).
As for `CN(C)c1nc(N(C)C)nc(N(C)C)n1`, the T/C reads like this: (endpoint: median survival time, dose: 100.0 mg/kg/injection, schedule: Q01DX005 (ip), vehicle: saline with Tween-80) 121 % of control; (endpoint: median survival time, dose: 100.0 mg/kg/injection, schedule: Q01DX005 (ip), vehicle: suspension in saline) 102 % of control; (endpoint: median survival time, dose: 200.0 mg/kg/injection, schedule: Q01DX005 (ip), vehicle: saline with Tween-80) 101 % of control; (endpoint: median survival time, dose: 200.0 mg/kg/injection, schedule: Q01DX005 (ip), vehicle: suspension in saline) 101 % of control; (endpoint: median survival time, dose: 400.0 mg/kg/injection, schedule: Q01DX005 (ip), vehicle: suspension in saline) 100 % of control; (endpoint: median survival time, dose: 800.0 mg/kg/injection, schedule: Q01DX005 (ip), vehicle: suspension in saline) 118 % of control.
With `N=[N+]=CC(=O)CCC(NC(=O)C(CCC(=O)C=[N+]=N)NC(=O)CCC(N)C(=O)O)C(=O)O` (stereo unspecified), the T/C is 95 % of control and 100 % of control (endpoint: median survival time, dose: 0.05 mg/kg/injection, schedule: Q01DX005 (ip), vehicle: Klucel (hydroxypropylcellulose) (HPC)); 93 % of control and 100 % of control (endpoint: median survival time, dose: 0.1 mg/kg/injection, schedule: Q01DX005 (ip), vehicle: Klucel (hydroxypropylcellulose) (HPC)); 96 % of control and 102 % of control (endpoint: median survival time, dose: 0.2 mg/kg/injection, schedule: Q01DX005 (ip), vehicle: Klucel (hydroxypropylcellulose) (HPC)); 94 % of control and 100 % of control (endpoint: median survival time, dose: 0.4 mg/kg/injection, schedule: Q01DX005 (ip), vehicle: Klucel (hydroxypropylcellulose) (HPC)).
Take `CN(C)C1=C(N2CC2)C(=O)C(N(C)C)=C(N2CC2)C1=O`: the T/C is, setting by setting: (endpoint: mean survival time, dose: 0.75 mg/kg/injection, schedule: Q04DX003 (ip), vehicle: saline) 122 % of control and 110 % of control; (endpoint: mean survival time, dose: 1.5 mg/kg/injection, schedule: Q04DX003 (ip), vehicle: saline) 152 % of control and 154 % of control; (endpoint: mean survival time, dose: 3.0 mg/kg/injection, schedule: Q04DX003 (ip), vehicle: saline) 156 % of control and 172 % of control.
As for `O=C1C(N2CC2)=C(N2CCCC(O)C2)C(=O)C(N2CC2)=C1N1CCCC(O)C1` (stereo unspecified), the T/C reads like this: (endpoint: mean survival time, dose: 2.0 mg/kg/injection, schedule: Q04DX003 (ip), vehicle: saline) 103 % of control and 110 % of control; (endpoint: mean survival time, dose: 4.0 mg/kg/injection, schedule: Q04DX003 (ip), vehicle: saline) 121 % of control and 110 % of control; (endpoint: mean survival time, dose: 6.0 mg/kg/injection, schedule: Q04DX003 (ip), vehicle: saline) 114 % of control; (endpoint: mean survival time, dose: 8.0 mg/kg/injection, schedule: Q04DX003 (ip), vehicle: saline) 114 % of control.
